Among the test systems are UACC-257 melanoma; OVCAR-5 ovarian; RPMI-8226 leukemia; OVCAR-8 ovarian; SF-268 CNS; DU-145 prostate; SW-620 colon; T-47D breast; SK-MEL-5 melanoma; SK-OV-3 ovarian.
What all share (experiment): inhibition of tumour cell growth, NCI panel, 48 h

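Cultured in 96-well plates, cells were exposed to test compound for 48 hours across five concentrations. Definition used: TGI = concentration required for complete inhibition of growth.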 Bounds are passed on as bounds.

Take `C=C(CO[Si](C)(C)C(C)(C)C)C(C)=O`: the TGI was 34.3 µM in the test on UACC-257 melanoma; 86.2 µM in the test with OVCAR-5 ovarian; above 77.8 µM in the test with RPMI-8226 leukemia; 37.5 µM with OVCAR-8 ovarian; above 74.6 µM with SF-268 CNS; above 100 µM in the test with DU-145 prostate. The TGI with SW-620 colon is 38.9 µM; in the test on T-47D breast, 56.1 µM; with SK-MEL-5 melanoma, 28.4 µM; in the test with SK-OV-3 ovarian, above 100 µM.
Take `O=C1/C(=N\S(=O)(=O)c2ccccc2)C([n+]2ccc(Cc3ccccc3)cc2)=C([O-])c2ccccc21`: the TGI in the test on UACC-257 melanoma was 2.54 µM; with OVCAR-5 ovarian, 3.49 µM; in the test on RPMI-8226 leukemia, above 100 µM; in the test with OVCAR-8 ovarian it was 8.06 µM; with SF-268 CNS it was 3.9 µM; in the test with DU-145 prostate, 2.89 µM. In addition, the TGI with SW-620 colon is 1.96 µM; in the test with T-47D breast, 13 µM; in the test on SK-MEL-5 melanoma it was 0.302 µM; in the test on SK-OV-3 ovarian, 18.5 µM.
Take `Oc1c([Si](c2ccccc2)(c2ccccc2)c2ccccc2)cc2ccccc2c1-c1c(O)c([Si](c2ccccc2)(c2ccccc2)c2ccccc2)cc2ccccc12`: the TGI with UACC-257 melanoma, in the test with OVCAR-5 ovarian, in the test with RPMI-8226 leukemia, in the test on OVCAR-8 ovarian, with SF-268 CNS and in the test on DU-145 prostate was above 100 µM each time. In addition, the TGI in the test with SW-620 colon, with T-47D breast, with SK-MEL-5 melanoma and in the test on SK-OV-3 ovarian was above 100 µM each time.
As for `CCOC(=O)c1c(N2CCCC2)ncn(Cc2ccccc2)c1=S`, the TGI with UACC-257 melanoma, in the test on OVCAR-5 ovarian, with RPMI-8226 leukemia, with OVCAR-8 ovarian, with SF-268 CNS and in the test with DU-145 prostate was above 100 µM throughout. Moreover, the TGI in the test on SW-620 colon, in the test on T-47D breast, in the test on SK-MEL-5 melanoma and in the test on SK-OV-3 ovarian was above 100 µM in each case.
In the case of `O=C(Nc1ccccc1)N(CCCCN(Cc1ccccc1)C(=O)Nc1ccccc1)Cc1ccccc1`, the TGI in the test with UACC-257 melanoma, with OVCAR-5 ovarian, with RPMI-8226 leukemia, with OVCAR-8 ovarian, in the test on SF-268 CNS and with DU-145 prostate was above 100 µM each time. For the same compound, the TGI in the test with SW-620 colon, with T-47D breast, in the test on SK-MEL-5 melanoma and with SK-OV-3 ovarian was above 100 µM each time.
`Cc1c(NC(=O)CSC(=S)N2CCN(Cc3ccccc3)CC2)c(=O)n(-c2ccccc2)n1C`: the TGI in the test with UACC-257 melanoma, in the test on OVCAR-5 ovarian, in the test on RPMI-8226 leukemia, in the test on OVCAR-8 ovarian, in the test with SF-268 CNS and in the test on DU-145 prostate was above 100 µM each time. For the same compound, the TGI in the test with SW-620 colon, in the test with T-47D breast, in the test on SK-MEL-5 melanoma and in the test on SK-OV-3 ovarian was above 100 µM each time.
With `COC(=O)C(CSSC[C@H](N/C(C)=C/C(C)=O)C(=O)OC)N/C(C)=C/C(C)=O` (stereo not given in full), the TGI in the test on UACC-257 melanoma was above 100 µM; in the test on OVCAR-5 ovarian, 39.2 µM; in the test with RPMI-8226 leukemia it was 63.5 µM; in the test on OVCAR-8 ovarian, 0.0686 µM; in the test with SF-268 CNS it was above 100 µM; in the test on DU-145 prostate, 87.5 µM. The TGI in the test with SW-620 colon was above 100 µM; in the test on T-47D breast it was 58 µM; in the test on SK-MEL-5 melanoma, above 100 µM; with SK-OV-3 ovarian it was above 100 µM.
For the compound `CCCC(=O)NC(Nc1ccc(S(=O)(=O)Nc2nc(C)cc(C)n2)cc1)(C(F)(F)F)C(F)(F)F`, the TGI with UACC-257 melanoma, in the test on OVCAR-5 ovarian, in the test with RPMI-8226 leukemia, in the test with OVCAR-8 ovarian, in the test on SF-268 CNS and with DU-145 prostate was above 100 µM in each case. Further, the TGI in the test with SW-620 colon, in the test on T-47D breast, in the test on SK-MEL-5 melanoma and in the test on SK-OV-3 ovarian was above 100 µM throughout.
Regarding `CC(=O)c1c(C(F)(F)F)n([O-])c2cc(Cl)c(Cl)cc2[n+]1=O`, the TGI with UACC-257 melanoma was found to be 2.11 µM; in the test on OVCAR-5 ovarian it was 3.29 µM; with RPMI-8226 leukemia it was 0.353 µM; in the test with OVCAR-8 ovarian, 1.84 µM; with SF-268 CNS it was 2.53 µM; with DU-145 prostate it was 3.37 µM. Besides, the TGI with SW-620 colon turned out to be 1.34 µM; with T-47D breast, 2.96 µM; with SK-MEL-5 melanoma, 2.06 µM; with SK-OV-3 ovarian it was 2.9 µM.
Take `CC(=O)Oc1c2oc3ccc(Cl)cc3c(=O)c2c(O)c2ccsc12`: the TGI in the test with UACC-257 melanoma, with OVCAR-5 ovarian, in the test on RPMI-8226 leukemia, with OVCAR-8 ovarian, in the test with SF-268 CNS and with DU-145 prostate was above 100 µM in each case. Also, the TGI in the test with SW-620 colon is above 100 µM; in the test with T-47D breast it was 86.7 µM; in the test with SK-MEL-5 melanoma, above 100 µM; in the test on SK-OV-3 ovarian, above 100 µM.
With `COc1ccc(C(SC2C(O)C(CO)OC2n2ccc(N)nc2=O)(c2ccccc2)c2ccc(OC)cc2)cc1` (stereo not given), the TGI with UACC-257 melanoma was 41.7 µM; with OVCAR-5 ovarian, 50.8 µM; in the test with RPMI-8226 leukemia, 59.3 µM; in the test with OVCAR-8 ovarian it was above 100 µM; in the test with SF-268 CNS it was 39.5 µM; in the test on DU-145 prostate, 39.4 µM. Further, the TGI is above 100 µM with SW-620 colon, 47.4 µM in the test on T-47D breast, 25.6 µM in the test on SK-MEL-5 melanoma and 56.1 µM with SK-OV-3 ovarian.
Consider `CCN(CC)c1ccc2cc(C(=O)Nc3cccc4ccccc34)c(=N)oc2c1`, for which the TGI in the test on UACC-257 melanoma, with OVCAR-5 ovarian, with RPMI-8226 leukemia, in the test with OVCAR-8 ovarian, in the test with SF-268 CNS and in the test on DU-145 prostate was above 100 µM throughout. Besides, the TGI in the test with SW-620 colon, in the test on T-47D breast, with SK-MEL-5 melanoma and in the test with SK-OV-3 ovarian was above 100 µM throughout.
As to `N#Cc1ccccc1-c1nc2c3c(c(N)ccc3n1)C(=O)c1ccccc1-2`, the TGI in the test on UACC-257 melanoma, with OVCAR-5 ovarian, in the test with RPMI-8226 leukemia, with OVCAR-8 ovarian, in the test on SF-268 CNS and in the test on DU-145 prostate was above 100 µM throughout. Moreover, the TGI with SW-620 colon was above 100 µM; in the test on T-47D breast, above 100 µM; in the test on SK-MEL-5 melanoma it was 74.5 µM; with SK-OV-3 ovarian it was above 100 µM.
As to `COc1cc(C2c3cc4c(cc3OC(NNC(N)=O)C2C)OCO4)cc(OC)c1O` (stereo not given), the TGI in the test with UACC-257 melanoma was above 100 µM; with OVCAR-5 ovarian, above 100 µM; with RPMI-8226 leukemia, above 31.8 µM; in the test with OVCAR-8 ovarian it was above 100 µM; with SF-268 CNS, above 100 µM; in the test on DU-145 prostate, 33.7 µM. For the same compound, the TGI in the test on SW-620 colon was above 100 µM; in the test on T-47D breast, above 100 µM; with SK-MEL-5 melanoma it was 18 µM; with SK-OV-3 ovarian, above 51.5 µM.

The values are drawn from PubChem BioAssay (NCI).
